≈ marks a conversion by molar mass, not a printed value.
conditions: buffer; pH 7.4; 200.0 µM

First: CC(C)(C)CC(C)(C)NC(=O)/C=C/C(=O)O
Second: COc1ccc(C(=O)NCC(=O)N2CCCC(C)C2)cc1OC (centres undefined)
The solubility kinetic of the first is lower: 29.1 µg/mL (≈ 128 µM) for the first, greater than 48.1 µg/mL for the second.

Compared with CCCN1C(=O)/C(=C2/C=Cc3ccccc3N2CC)SC1=S, COc1cccc(SCC2CSc3nc4ccccc4c(=O)n32)c1 (centres undefined) is higher in solubility kinetic: less than 0.4 µg/mL for the first, greater than 53.5 µg/mL for the second.

Compared with O=C(/C=C/c1c(Cl)nc2ccccn12)Nc1ccc(F)cc1, CCc1ccc(NC(=O)C(=O)NCc2ccccn2)cc1 is 3.5-fold higher in solubility kinetic: 4.6 µg/mL (≈ 14.6 µM) for the first, 16.1 µg/mL (≈ 56.8 µM) for the second.

First: CCOC(=O)C1CCCN(C(=O)CSc2nc(C)cc(C)n2)C1 (centres undefined)
Second: Cc1ccsc1C(=O)OCC(=O)N(C)C1CCCCC1
The solubility kinetic of the first is lower: 41.5 µg/mL (≈ 123 µM) for the first, greater than 44.3 µg/mL for the second.

Compared with O=S(=O)(c1ccccc1)N1CCN2CCCC2C1 (centres undefined), CC1CCCN(S(=O)(=O)c2ccc(Cl)s2)C1 (centres undefined) is lower in solubility kinetic: greater than 40 µg/mL for the first, 10.8 µg/mL (≈ 38.6 µM) for the second.

Going from CC1CCCN(C(=O)c2ccc(-c3ccccc3Cl)o2)C1 (centres undefined) to O=C(Nc1cccc(Cl)c1N1CCCC1)c1ccco1, the solubility kinetic falls from 10 µg/mL (≈ 32.9 µM) to 1.2 µg/mL (≈ 4.13 µM) (8.3-fold).

Compared with COc1ccc(-c2noc(=O)n2Cc2ccc(C#N)cc2)cc1, COc1ccc(C2(CNC(=O)c3ccc(N)cc3)CCCC2)cc1 is lower in solubility kinetic: greater than 46.1 µg/mL for the first, 26.7 µg/mL (≈ 82.3 µM) for the second.

First: CC(NC(=O)COc1ccccc1)C(=O)NCc1ccc(S(N)(=O)=O)cc1 (centres undefined)
Second: Cn1c(C(=O)O)cc2cc(Oc3ccccc3)ccc21
The solubility kinetic of the first is higher: greater than 58.7 µg/mL for the first, 36 µg/mL (≈ 135 µM) for the second.

CSc1sc(C(=O)Nc2ccc(F)cc2F)c2c1C=CCC2 and O=C(COC(=O)CCC1CCCC1)Nc1ccc(F)cc1Cl are within 1.5-fold of each other in solubility kinetic: 2.9 µg/mL (≈ 8.59 µM) for the first, 3.4 µg/mL (≈ 10.4 µM) for the second.

CN1C(=O)/C(=C\c2ccc(N3CCCCCC3)cc2)C(=O)NC1=S and Cc1nc(N2CCCCC2)c2c(-c3cccs3)csc2n1 are within 1.5-fold of each other in solubility kinetic: 2.7 µg/mL (≈ 7.86 µM) for the first, 2.3 µg/mL (≈ 7.29 µM) for the second.

First: Cc1cccc(NC(=O)c2cccc(N3C(=O)C4C5C=CC(C6CC56)C4C3=O)c2)c1 (centres undefined)
Second: O=C(Nc1cccc(NC(=O)c2cccs2)c1)c1cccnc1
The solubility kinetic of the first is lower: 1.5 µg/mL (≈ 3.76 µM) for the first, greater than 48.5 µg/mL for the second.

Compared with Fc1ccccc1N1CCN(c2ncnc3nc[nH]c23)CC1, O=S(=O)(Nc1ccccc1F)c1cccc(NC(=S)NCCN2CCOCC2)c1 is 40-fold higher in solubility kinetic: 1.3 µg/mL (≈ 4.36 µM) for the first, 51.6 µg/mL (≈ 118 µM) for the second.

O=C(O)c1ccc(S(=O)(=O)NCC2CCCCC2)cc1 and CCCN(CCC)S(=O)(=O)c1ccc(C(=O)O)cc1 cannot be ordered by solubility kinetic: greater than 44.6 µg/mL for the first, greater than 42.8 µg/mL for the second.

Going from CCCCCOc1ccc(NC2=CC(=O)CCC2)cc1 to CCOc1ccc(NS(=O)(=O)c2ccc3[nH]c(=O)[nH]c3c2)cc1, the solubility kinetic falls from greater than 41 µg/mL to 2 µg/mL (≈ 6 µM).

First: CC(C)N1CCN(C2CSCCSC2)CC1CCO (centres undefined)
Second: O=C(CN1CCC(NC(=O)C2CCCCC2)CC1)Nc1cccc(F)c1
The solubility kinetic of the first is 2.3-fold higher: 42.7 µg/mL (≈ 140 µM) for the first, 18.4 µg/mL (≈ 50.9 µM) for the second.

First: O=C(c1cc(O)c(O)c([N+](=O)[O-])c1)c1ccccc1F
Second: COC(=O)c1ccccc1NC(=O)c1cc[n+](C)cc1
The solubility kinetic of the first is higher: greater than 41.6 µg/mL for the first, 26.8 µg/mL for the second.

Compared with Oc1ccc2ccccc2c1CNc1ccccn1, Cc1ccc2[nH]c(CSc3ccccc3)cc(=O)c2c1 is 1.6-fold higher in solubility kinetic: 9.4 µg/mL (≈ 37.6 µM) for the first, 14.9 µg/mL (≈ 53 µM) for the second.

First: CC(C)C12CN3CC(C(C)C)(CN(C1)C3(C)C)C2=O
Second: CC(C)Sc1nc(SCC(=O)O)c2c3c(sc2n1)COC(C)(C)C3
The solubility kinetic of the first is 1.8-fold lower: 32 µg/mL (≈ 121 µM) for the first, 56.9 µg/mL (≈ 148 µM) for the second.

CCCn1c(N)c(C(=O)CN2CCN(S(=O)(=O)c3cccc(Cl)c3)CC2)c(=O)[nH]c1=O and O=C(COc1cc(Cl)ccc1Cl)N1CCNC1=O cannot be ordered by solubility kinetic: greater than 70.5 µg/mL for the first, greater than 43.4 µg/mL for the second.

Going from COc1cc2nc(Cl)nc(N3CCCCC3)c2cc1OC to CCCc1cc(=O)oc2cc(OCC(=O)N3CCOCC3)c(Cl)cc12, the solubility kinetic rises from 1.2 µg/mL (≈ 3.9 µM) to 3.8 µg/mL (≈ 10.4 µM) (3.2-fold).

Cc1ccc(CN(Cc2ccco2)C(=S)Nc2ccccc2C)cc1 and CC(=O)c1c(C)oc2ccc(NS(=O)(=O)c3ccc(C)cc3)cc12 cannot be ordered by solubility kinetic: 0.4 µg/mL (≈ 1.14 µM) for the first, less than 0.7 µg/mL for the second.

O=C(Nc1ccccc1)c1ccc2c(c1)OCCCO2 and CC(=O)c1ccc(OCC(O)CNCc2ccc3c(c2)OCO3)cc1 (centres undefined) cannot be ordered by solubility kinetic: greater than 40.4 µg/mL for the first, 46.2 µg/mL (≈ 135 µM) for the second.

First: [O-][n+]1c2ccccc2[n+]([O-])c2cc(O)ccc21
Second: O=c1c(/C=N/O)coc2ccc(Cl)cc12
The solubility kinetic of the first is higher: greater than 34.2 µg/mL for the first, 8.2 µg/mL (≈ 36.7 µM) for the second.

Compared with O=C(O)CCN1C(=O)c2ccc(NC(=O)c3ccco3)cc2C1=O, Cc1nc(SCCc2ccccc2)[nH]c(=O)c1C is lower in solubility kinetic: greater than 49.2 µg/mL for the first, 10.9 µg/mL (≈ 41.9 µM) for the second.

Going from O=S(=O)(NC1CCCCC1)c1cccs1 to O=C(Cc1ccc([N+](=O)[O-])cc1)NC1CCCCCC1, the solubility kinetic falls from 28.7 µg/mL (≈ 117 µM) to 15 µg/mL (≈ 54.3 µM) (1.9-fold).

Compared with Cc1ccccc1CC(=O)NCCN1CCOCC1, CCCCOc1nc(N2CCOCC2)nc(C)c1[N+](=O)[O-] is lower in solubility kinetic: greater than 39.4 µg/mL for the first, 1.5 µg/mL (≈ 5.06 µM) for the second.

Compared with O=C(O)c1cn(C2CCCCC2)c2ccccc2c1=O, O=C(Cc1ccc(Cl)cc1Cl)NC1CCCCCC1 is lower in solubility kinetic: greater than 40.7 µg/mL for the first, 2.2 µg/mL (≈ 7.33 µM) for the second.

O=C(Cn1ccc(=O)[nH]c1=O)NCCO and O=C(COC(=O)CNC(=O)C1CCCCC1)Nc1cccc(F)c1 cannot be ordered by solubility kinetic: greater than 32 µg/mL for the first, greater than 50.5 µg/mL for the second.

Cc1ccc(C(=O)C(C)[n+]2cccc(C(N)=O)c2)cc1.[Br-] (centres undefined) and O=C1CN(c2ccccc2)C(=O)N1 cannot be ordered by solubility kinetic: greater than 52.4 µg/mL for the first, greater than 26.4 µg/mL for the second.

CN(CC(=O)NC1CCCC1)S(=O)(=O)c1cnc[nH]1 showed a solubility kinetic greater than 43 µg/mL.

From PubChem BioAssay AID1996
